Test results reported in US11780839B2, “Compounds for treating Huntington's disease” (PTC THERAPEUTICS, INC., priority 2018, dated 2023).

What follows are compounds tested on Endogenous Huntingtin Protein (assay: Endogenous Huntingtin Protein Assay (ELISA-based Meso Scale Discovery electrochemiluminescence)). Details: MSD electrochemiluminescence, Table 1.
Format: cell-based
Description: Compounds of Formula (I) or Formula (II) were tested using the Meso Scale Discovery (MSD) Assay provided in International Application No. PCT/US2016/066042, filed on Dec. 11, 2016 and claiming priority to U.S. Provisional Application 62/265,652 filed on Dec. 10, 2015, the entire contents of which are incorporated herein by reference.
The Endogenous Huntingtin Protein assay used in Example 1 was developed using the ELISA-based MSD electrochemiluminescence assay platform.
Endogenous Huntingtin Protein Assay
Meso Scale Discovery (MSD) 96-well or 384-well plates were coated overnight at 4° C. with MW1 (expanded polyglutamine) or MAB2166 monoclonal antibody (for capture) at a concentration of 1 μg/mL in PBS (30 μL per well). Plates were then washed three times with 300 μL wash buffer (0.05% Tween-20 in PBS) and blocked (100 μL blocking buffer; 5% BSA in PBS) for 4-5 hours at room temperature with rotational shaking and then washed three times with wash buffer.
Samples (25 μL) were transferred to the antibody-coated MSD plate and incubated overnight at 4° C. After removal of the lysates, the plate was washed three times with wash buffer, and 25 μL of #5656S (Cell signaling; rabbit monoclonal) secondary antibody (diluted to 0.25 μg/mL in 0.05% Tween-20 in blocking buffer) was added to each well and incubated with shaking for 1 Hour at room temperature. Following incubation with the secondary antibody, the wells were rinsed with wash buffer after which 25 μL of goat anti-rabbit SULFO TAG secondary detection antibody (required aspect of the MSD system) (diluted to 0.25 μg/mL in 0.05% Tween-20 in blocking buffer) was added to each well and incubated with shaking for 1 hour at room temperature. After rinsing three times with wash buffer, 150 μL of read buffer T with surfactant (MSD) were added to each empty well, and the plate was imaged on a SI 6000 imager (MSD) according to manufacturers' instructions provided for 96- or 384-well plates.

Row | Compound | IC50 [nM]
1 | CN(c1ncc(-c2ccc(-c3cn[nH]c3)cc2O)nn1)C1CC(C)(C)NC(C)(C)C1F (centres unmarked) [Cpd 67, 2-{3-[(3-fluoro-2,2,6,6-tetramethylpiperidin-4-yl)(methyl)amino]-1,2,4-triazin-6-yl}-5-(1H-pyrazol-4-yl)phenol] | 100 to 500
2 | CC(C)NC1CCN(c2ncc(-c3ccc(-c4cnc5c(cnn5C)c4)cc3O)nn2)C1 (centres unmarked) [Cpd 307, 5-(1-methyl-1H-pyrazolo[3,4-b]pyridin-5-yl)-2-(3-{3-[(propan-2-yl)amino]pyrrolidin-1-yl}-1,2,4-triazin-6-yl)phenol] | > 500
3 | CC1(C)CC(Oc2ncc(-c3ccc(-c4c[nH]nc4F)cc3O)nn2)CC(C)(C)N1 [Cpd 72, 5-(3-fluoro-1H-pyrazol-4-yl)-2-{3-[(2,2,6,6-tetramethylpiperidin-4-yl)oxy]-1,2,4-triazin-6-yl}phenol] | ≤ 100
4 | CN(c1ncc(-c2ccc(-c3cc(F)c4[nH]ncc4c3)cc2O)nn1)C1CC(C)(C)NC(C)(C)C1 [Cpd 383, 5-(7-fluoro-1H-indazol-5-yl)-2-{3-[methyl(2,2,6,6-tetramethylpiperidin-4-yl)amino]-1,2,4-triazin-6-yl}phenol] | ≤ 100
5 | CC(C)NC1CCN(c2ncc(-c3ccc(-n4ccnc4)cc3O)nn2)C1 (centres unmarked) [Cpd 331] | 100 to 500
6 | Cc1cn(-c2ccc(-c3cnc(N[C@H]4CC(C)(C)NC(C)(C)[C@H]4F)nn3)c(O)c2)cn1 [Cpd 239, 2-{3-{[(3S,4S)-3-fluoro-2,2,6,6-tetramethylpiperidin-4-yl]amino}-1,2,4-triazin-6-yl)-5-(4-methyl-1H-imidazol-1-yl)phenol] | ≤ 100
7 | CN(c1ncc(-c2ccc(-c3cc(F)c4[nH]cnc4c3)cc2O)nn1)C1CC(C)(C)NC(C)(C)C1 [Cpd 280, 5-(7-fluoro-1H-benzimidazol-5-yl)-2-{3-[methyl(2,2,6,6-tetramethylpiperidin-4-yl)amino]-1,2,4-triazin-6-yl}phenol] | ≤ 100
8 | CN1CCC2(CC1)CN(c1ncc(-c3ccc(-c4ccc5c(cnn5C)c4)cc3O)nn1)C2 [Cpd 223] | 100 to 500
9 | Oc1cc(-c2cn[nH]c2)ccc1-c1cnc(N2CCC(C3(NC4CCOCC4)CC3)C2)nn1 (centres unmarked) [Cpd 421, 2-[3-(3-{1-[(oxan-4-yl)amino]cyclopropyl}pyrrolidin-1-yl)-1,2,4-triazin-6-yl]-5-(1H-pyrazol-4-yl)phenol] | ≤ 100
10 | CN(c1cnc(-c2ccc(-c3ncccn3)cc2O)nn1)C1CC(C)(C)NC(C)(C)C1 [Cpd 402, 2-{6-[methyl(2,2,6,6-tetramethylpiperidin-4-yl)amino]-1,2,4-triazin-3-yl}-5-(pyrimidin-2-yl)phenol] | ≤ 100
11 | CN(c1ncc(-c2ccc(-c3ccc4c(ncn4C)n3)cc2O)nn1)C1CC(C)(C)NC(C)(C)C1 [Cpd 164, 5-(1-methyl-1H-imidazo[4,5-b]pyridin-5-yl)-2-{3-[methyl(2,2,6,6-tetramethylpiperidin-4-yl)amino]-1,2,4-triazin-6-yl}phenol] | 100 to 500
12 | CN(c1ncc(-c2ccc(-c3cn[nH]c3)cc2O)nn1)C1C[C@H]2CCC[C@@H](C1)N2 (stereo partly drawn) [Cpd 22, 2-(3-{[(1R,3S,5S)-9-azabicyclo[3.3.1]nonan-3-yl](methyl)amino}-1,2,4-triazin-6-yl)-5-(1H-pyrazol-4-yl)phenol] | ≤ 100
13 | CN(c1ncc(-c2ccc(-c3ncc4c(cnn4C)n3)cc2O)nn1)C1CC(C)(C)NC(C)(C)C1 [Cpd 281, 5-(1-methyl-1H-pyrazolo[4,3-d]pyrimidin-5-yl)-2-{3-[methyl(2,2,6,6-tetramethylpiperidin-4-yl)amino]-1,2,4-triazin-6-yl}phenol] | ≤ 100
14 | Oc1cc(-c2cn[nH]c2)ccc1-c1cnc(N2CCC(NC3CC3)C2)nn1 (centres unmarked) [Cpd 137, 2-{3-[3-(cyclopropylamino)pyrrolidin-1-yl]-1,2,4-triazin-6-yl}-5-(1H-pyrazol-4-yl)phenol] | ≤ 100
15 | CN(c1ncc(-c2ccc(-c3cnn(C)n3)cc2O)nn1)C1CC(C)(C)NC(C)(C)C1 [Cpd 23, 2-{3-[methyl(2,2,6,6-tetramethylpiperidin-4-yl)amino]-1,2,4-triazin-6-yl}-5-(2-methyl-2H-1,2,3-triazol-4-yl)phenol] | ≤ 100
16 | CC(C)(C)N[C@@H]1CC[C@@H]2CN(c3ncc(-c4ccc(-c5cn[nH]c5)cc4O)nn3)C[C@@H]21 [Cpd 193, 2-{3-[(3aR,4R,6aS)-4-(tert-butylamino)hexahydrocyclopenta[c]pyrrol-2(1H)-yl]-1,2,4-triazin-6-yl}-5-(1H-pyrazol-4-yl)phenol] | 1000 to 3000

Row | Compound | IC50 [nM]
17 | CN(c1ncc(-c2ccc(-c3ccn4nnnc4c3)cc2O)nn1)C1CC(C)(C)NC(C)(C)C1 [Cpd 155, 2-{3-[methyl(2,2,6,6-tetramethylpiperidin-4-yl)amino]-1,2,4-triazin-6-yl}-5-(tetrazolo[1,5-a]pyridin-7-yl)phenol] | ≤ 100
18 | CN1CCC2(CC1)CN(c1ncc(-c3ccc(-c4ncccn4)cc3O)nn1)C2 [Cpd 244, 2-[3-(7-methyl-2,7-diazaspiro[3.5]nonan-2-yl)-1,2,4-triazin-6-yl]-5-(pyrimidin-2-yl)phenol] | 3000 to 9000
19 | CC(C)(C)NC1CCN(c2ncc(-c3ccc(-c4ccn5nncc5c4)cc3O)nn2)C1 (stereo not drawn) [Cpd 207, 2-{3-[3-(tert-butylamino)pyrrolidin-l-yl]-1,2,4-triazin-6-yl}-5-([1,2,3]triazolo[1,5-a]pyridin-5-yl)phenol] | 1000 to 3000
20 | CN1CCC2(CC1)CN(c1ncc(-c3ccc(-n4cc(F)cn4)cc3O)nn1)C2 [Cpd 229, 5-(4-fluoro-1H-pyrazol-1-yl)-2-[3-(7-methyl-2,7-diazaspiro[3.5]nonan-2-yl)-1,2,4-triazin-6-yl]phenol] | > 500
21 | CN(c1ncc(-c2ccc(-c3ccc4c(c3)ncn4C)cc2O)nn1)C1CC(C)(C)NC(C)(C)C1 [Cpd 285, 5-(1-methyl-1H-benzimidazol-5-yl)-2-{3-[methyl(2,2,6,6-tetramethylpiperidin-4-yl)amino]-1,2,4-triazin-6-yl}phenol] | ≤ 100
22 | CN(c1ncc(-c2cc3cccnc3cc2O)nn1)C1CC(C)(C)NC(C)(C)C1 [Cpd 105, 6-{3-[methyl(2,2,6,6-tetramethylpiperidin-4-yl)amino]-1,2,4-triazin-6-yl}quinolin-7-ol] | 100 to 500
23 | CN(c1ncc(-c2ccc(-c3ccc4[nH]ncc4n3)cc2O)nn1)C1CC(C)(C)NC(C)(C)C1 [Cpd 136, 2-{3-[methyl(2,2,6,6-tetramethylpiperidin-4-yl)amino]-1,2,4-triazin-6-yl}-5-(1H-pyrazolo[4,3-b]pyridin-5-yl)phenol] | ≤ 100
24 | CN1CCC2(CC1)CN(c1ncc(-c3ccc(-c4ccc5nccn5n4)cc3O)nn1)C2 [Cpd 256, 5-(imidazo[1,2-b]pyridazin-6-yl)-2-[3-(7-methyl-2,7-diazaspiro[3.5]nonan-2-yl)-1,2,4-triazin-6-yl]phenol] | 100 to 500
25 | CN1CCC2(CC1)CN(c1ncc(-c3ccc(-c4nnn(C)n4)cc3O)nn1)C2 [Cpd 251, 2-[3-(7-methyl-2,7-diazaspiro[3.5]nonan-2-yl)-1,2,4-triazin-6-yl]-5-(2-methyl-2H-tetrazol-5-yl)phenol] | 100 to 500
26 | Cc1cnc(-c2ccc(-c3cnc(N(C)C4CC(C)(C)NC(C)(C)C4)nn3)c(O)c2)nc1 [Cpd 128, 5-(5-methylpyrimidin-2-yl)-2-{3-[methyl(2,2,6,6-tetramethylpiperidin-4-yl)amino]-1,2,4-triazin-6-yl}phenol] | 100 to 500
27 | CN(c1ncc(-c2ccc(-c3nnco3)cc2O)nn1)C1CC(C)(C)NC(C)(C)C1 [Cpd 106, 2-{3-[methyl(2,2,6,6-tetramethylpiperidin-4-yl)amino]-1,2,4-triazin-6-yl}-5-(1,3,4-oxadiazol-2-yl)phenol] | ≤ 100
28 | CN(c1ncc(-c2ccc(-c3cc4cnn(C)c4cn3)cc2O)nn1)C1CC(C)(C)NC(C)(C)C1 [Cpd 222, 5-(1-methyl-1H-pyrazolo[3,4-c]pyridin-5-yl)-2-{3-[methyl(2,2,6,6-tetramethylpiperidin-4-yl)amino]-1,2,4-triazin-6-yl}phenol] | ≤ 100
29 | Cc1cn(-c2ccc(-c3cnc(NC4CC(C)(C)NC(C)(C)C4)nn3)c(O)c2)cn1 [Cpd 274, 5-(4-methyl-1H-imidazol-1-yl)-2-{3-[(2,2,6,6-tetramethylpiperidin-4-yl)amino]-1,2,4-triazin-6-yl}phenol] | ≤ 100
30 | Cc1nnn(-c2ccc(-c3cnc(N(C)C4CC(C)(C)NC(C)(C)C4)nn3)c(O)c2)n1 [Cpd 119, 2-{3-[methyl(2,2,6,6-tetramethylpiperidin-4-yl)amino]-1,2,4-triazin-6-yl}-5-(5-methyl-2H-tetrazol-2-yl)phenol] | ≤ 100
31 | CO[C@H]1[C@@H](Nc2ncc(-c3ccc(-c4cn[nH]c4)cc3O)nn2)CC(C)(C)NC1(C)C [Cpd 286, 2-(3-{[(3S,4S)-3-methoxy-2,2,6,6-tetramethylpiperidin-4-yl]amino}-1,2,4-triazin-6-yl)-5-(1H-pyrazol-4-yl)phenol] | 100 to 500
32 | 5-(5-fluoro-1H-pyrazol-4-yl)-2-{6-[methyl(2,2,6,6-tetramethylpiperidin-4-yl)amino]-1,2,4-triazin-3-yl}phenol [Cpd 191] | ≤ 100
